The target of this experiment is T1, CCR-3 (Homo sapiens, UniProt P51677).
T1 sequence (P51677 1-355): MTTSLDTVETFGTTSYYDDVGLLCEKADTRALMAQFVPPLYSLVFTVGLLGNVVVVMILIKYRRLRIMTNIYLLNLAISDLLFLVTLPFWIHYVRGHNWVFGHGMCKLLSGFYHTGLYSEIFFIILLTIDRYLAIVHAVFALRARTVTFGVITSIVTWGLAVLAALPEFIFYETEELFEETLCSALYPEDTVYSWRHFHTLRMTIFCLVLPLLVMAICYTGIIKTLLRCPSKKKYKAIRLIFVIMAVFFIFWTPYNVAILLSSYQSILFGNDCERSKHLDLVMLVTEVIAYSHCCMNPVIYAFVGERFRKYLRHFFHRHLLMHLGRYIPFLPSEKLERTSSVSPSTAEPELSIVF
Description: Inhibition of eotaxin-induced chemotaxis of CCR-3 transfectant cells (CCR3/U937). The settings on record: eotaxin 1×10^−9 M; for Chemotaxis Assay 10 μM (inhibition %): compound 10 μM; for inhibition at 10 µM: U-937, compound 10 μM. On the set-up: expressed in transfected cells; host or cells: U937. The class given is cell-based. On the procedure: The inhibitory activity of the compounds against eotaxin-induced chemotaxis was determined by measuring the inhibition of migration of CCR-3 transfectant cells (CCR3/U937), using a minor modification of the method described by Ohashi, H. et al., Int Arch Allergy Immunol. (1999) 118, 44-50. CCR-3 transfectant cells were grown in PRMI1640 medium containing 10% fetal calf serum (FCS) and Geneticin 418 (0.8 mg/ml). For the assay, CCR-3 transfectant cells were isolated and resuspended at 1×10^7 cells/ml in assay medium (RPMI 1640 medium containing 0.1% bovine serum albumin (BSA)). The chemotaxis assay was performed in a 24-well culture plate. Human eotaxin suspended in assay medium was added to the wells at 1×10^−9 M along with test compounds at various concentrations. For a positive control, eotaxin was added to the wells without a test compound, and for a negative control, neither eotaxin nor a test compound was added to the walls. Chemotaxicell (Kurabo Co., Ltd.) having 5 micrometers pore size were inserted into each well and 100 micro liters of CCR-3 transfectant cells suspension were added to the top chamber. The plates were incubated at 37° C. for 1 hour. After incubation, migrated cells in lower wells were diluted and counted by particle size distribution analyzer (CDP-500, Sysmex Co., Ltd.)

Molecules are shown by their SMILES.

Regarding `O=C(O)CCCN(CCCNC(=S)Nc1ccc(I)cc1)C1CCCc2ccccc21` (centres unmarked) [Compound 249], the “Chemotaxis Assay 10 μM (inhibition %)” value (Table 3a) is on record as 100%.

Regarding `CC(C)NC(=O)[C@H](CCN(CCCC(=O)O)C1CCCc2ccccc21)NC(=O)Nc1ccc(Br)cc1` (stereo partly drawn) [Compound 284, 4-[[(3S)-3-(4-Bromophenylureido)-3-(isopropylcarbamoyl)propyl](1,2,3,4-tetrahydro-1-naphthy1)amino]butanoic acid], the “Chemotaxis Assay 10 μM (inhibition %)” value (Table 3a) was determined as 95%.

For `CCN(CCCNC(=O)Nc1ccc(Cl)cc1)CCc1ccc(Cl)cc1` [Compound 6], the “Chemotaxis Assay 10 μM (inhibition %)” value (Table 3a) came out at 100%.

For orientation: inhibition means the percentage by which the read-out fell short of the control. For the compound `CC(C)NC(=O)[C@H](CCN(CCCC(=O)O)C1CCCc2ccccc21)NC(=O)Nc1ccc(Br)cc1` (stereo partly drawn) [Compound 286, 4-[[(3S)-3-(4-Bromophenylureido)-3-(isopropylcarbamoyl)propyl](1,2,3,4-tetrahydro-1-naphthyl)amino]butanoic acid], under “Table 3a”, at 10 µM the inhibition was 100%.

For the compound `COC(=O)CCCN(CCCNC(=S)Nc1cccc(Br)c1)C1CCCc2ccccc21` (centres unmarked) [Compound 253], the “Chemotaxis Assay 10 μM (inhibition %)” value (Table 3a) is reported as 74%.

Consider `O=C(O)CCCN(CCCNC(=S)Nc1cccc(Cl)c1)C1CCCc2ccccc21` (centres unmarked) [Compound 248], for which the “Chemotaxis Assay 10 μM (inhibition %)” value (Table 3a) came to 100%.

Under “Table 3a”, `O=C(O)CCCN(CCCNC(=O)Nc1ccc(Br)cc1)C1CCc2ccccc21` (centres unmarked) [Compound 173, 4-[[3-(4-Bromophenylureido)propyl](1-indanyl)amino]butanoic acid] gave an inhibition at 10 µM of 100%.

For `O=C(O)CCCN(CCCNC(=S)Nc1cccc(Br)c1)C1CCCc2ccccc21` (centres unmarked) [Compound 247], the “Chemotaxis Assay 10 μM (inhibition %)” value (Table 3a) turned out to be 99%.

`COC(=O)CCCN(CC[C@H](NC(=O)Nc1ccc(Br)cc1)C(=O)OC(C)(C)C)C1CCCc2ccccc21` (some centres unmarked) [Compound 281]: the “Chemotaxis Assay 10 μM (inhibition %)” value (Table 3a) was 100%.

Take `O=C(O)CCCN(CC[C@H](NC(=O)Nc1ccc(Br)cc1)C(=O)NCc1ccccc1)C1CCCc2ccccc21` (stereo partly drawn) [Compound 287, 4-[[(3S)-3-(4-Bromophenylureido)-3-(benzylcarbamoyl)propyl](1,2,3,4-tetrahydro-1-naphthyl)amino]butanoic acid]: for the setting “Table 3a”, the “Chemotaxis Assay 10 μM (inhibition %)” value turned out to be 100%.

Take `O=C(O)CCCN(CCNC(=O)Nc1ccc(Br)cc1)C1CCCc2ccccc21` (centres unmarked) [Compound 81]: the “Chemotaxis Assay 10 μM (inhibition %)” value (Table 3a) amounted to 58%.

In the case of `COC(=O)CCCN(CC[C@H](NC(=O)Nc1ccc(Br)cc1)C(=O)NC(C)C)C1CCCc2ccccc21` (stereo partly drawn) [Compound 282, methyl 4-[[(3S)-3-(4-bromophenylureido)-3-(isopropylcarbamoyl)propyl](1,2,3,4-tetrahydro-1-naphthyl)amino]butylate], the “Chemotaxis Assay 10 μM (inhibition %)” value (Table 3a) is 100%.

Compound `O=C(O)CCCN(CCCNC(=S)Nc1ccc(Br)cc1)[C@@H]1CCc2ccccc21` [Compound 288, 4-[[3(4-Bromophenylthioureido)propyl][(1R)-1-indanyl]amino]butanoic acid] registered an inhibition at 10 µM (Table 3a) of 100%.

As for `CCN(CCNC(=O)Nc1ccc([N+](=O)[O-])cc1)CCc1ccc(Cl)cc1` [Compound 4], the “Chemotaxis Assay 10 μM (inhibition %)” value (Table 3a) was 59%.

With `COC(=O)CCCN(CCCNC(=S)Nc1ccc(I)cc1)C1CCCc2ccccc21` (centres unmarked) [Compound 255], the “Chemotaxis Assay 10 μM (inhibition %)” value (Table 3a) worked out at 100%.

`O=C(O)CCCN(CCCNC(=S)Nc1ccc(Br)cc1)[C@@H]1CCCc2ccccc21` [Compound 290, 4-[[3(4-Bromophenylthioureido)propyl][(1R)-1,2,3,4-tetrahydro-1-naphthyl]amino]butanoic acid]: for the setting “Table 3a”, the inhibition at 10 µM worked out at 100%.

For the compound `COC(=O)CCCN(CCCNC(=S)Nc1ccc(Br)cc1)C1CCCc2ccccc21` (centres unmarked) [Compound 252], under “Table 3a”, the “Chemotaxis Assay 10 μM (inhibition %)” value is given as 100%.

`O=C(O)CCCN(CCCNC(=O)Nc1cc(Cl)nc(Cl)c1)C1CCCc2ccccc21` (centres unmarked) [Compound 279]: the “Chemotaxis Assay 10 μM (inhibition %)” value (Table 3a) worked out at 96%.

For the compound `O=C(O)CCCN(CCCNC(=S)Nc1ccc(Cl)cc1)C1CCCc2ccccc21` (centres unmarked) [Compound 164, 4-[[3-(4-chlorophenylthioureido)propyl](1,2,3,4-tetrahydro-1-naphthyl)amino]butanoic acid], the inhibition at 10 µM (Table 3a) came out at 100%.

Take `O=C(O)CCCN(CCCNC(=S)Nc1ccc(F)cc1)C1CCCc2ccccc21` (centres unmarked) [Compound 257]: the “Chemotaxis Assay 10 μM (inhibition %)” value (Table 3a) was 100%.

Consider `CC[N+](CC)(CCCNC(=S)Nc1ccc(Br)cc1)CCc1ccc(Cl)cc1.[I-]` [Compound 335], for which, under “Table 3c”, the “Chemotaxis Assay 10 μM (inhibition %)” value is listed as 100%.

With `Cc1ccc(NC(=S)NCCCN(CCCC(=O)O)C2CCCc3ccccc32)cc1` (centres unmarked) [Compound 250], where the note is “Table 3a”, the “Chemotaxis Assay 10 μM (inhibition %)” value stood at 99%.

For `COC(=O)CCCN(CCCNC(=O)Nc1ccc(Br)cc1)Cc1cccs1` [Compound 39], the “Chemotaxis Assay 10 μM (inhibition %)” value (Table 3a) was 78%.

Take `COc1ccc(CN(CCCNC(=O)Nc2ccccc2)CCc2ccc(Cl)cc2)cc1` [Compound 18]: where the note is “Table 3a”, the “Chemotaxis Assay 10 μM (inhibition %)” value was 58%.

For the compound `CC[N+](CC)(CCCNC(=S)Nc1ccccc1)CCc1ccc(Cl)cc1.[I-]` [Compound 336], the “Chemotaxis Assay 10 μM (inhibition %)” value (Table 3c) stood at 100%.

In the case of `COC(=O)CCCN(CCCNC(=S)Nc1ccc(Cl)c(Cl)c1)C1CCCc2ccccc21` (centres unmarked) [Compound 256], the “Chemotaxis Assay 10 μM (inhibition %)” value (Table 3a) is given as 100%.

Regarding `COC(=O)CCCN(CCCNC(=O)Nc1ccc(Br)cc1)CCc1ccc(OC)c(OC)c1` [Compound 43], the “Chemotaxis Assay 10 μM (inhibition %)” value (Table 3a) stood at 50%.

On to `COC(=O)CCCN(CCNC(=O)Nc1ccc(Br)cc1)C1CCCc2ccccc21` (centres unmarked) [Compound 50], for which the “Chemotaxis Assay 10 μM (inhibition %)” value (Table 3a) amounted to 54%.

For the compound `CCN(CCc1ccc(Cl)cc1)CC(O)CNC(=O)Nc1ccccc1` (centres unmarked) [Compound 163, N-phenylcarbamoyl-N′-[2-(4-chlorophenyl)ethyl]-N′-ethyl 2-hydroxy-1,3-diaminopropane], 10 µM produced 96% inhibition (Table 3a).

On to `CCN(CCCNC(=O)Nc1ccccc1OC)CCc1ccc(Cl)cc1` [Compound 9], for which the “Chemotaxis Assay 10 μM (inhibition %)” value (Table 3a) is 100%.

In the case of `CC(C)(C)OC(=O)[C@H](CCN(CCCC(=O)O)C1CCCc2ccccc21)NC(=O)Nc1ccc(Br)cc1` (stereo partly drawn) [Compound 166, 4[[(3S)-3-(4-bromophenylureido)-3-(tert-butoxycarbonyl)propyl](1,2,3,4-tetrahydro-1-naphthyl)amino]butanoic acid], the “Chemotaxis Assay 10 μM (inhibition %)” value (Table 3a) came out at 100%.

As for `O=C(O)CCCN(CCCNC(=S)Nc1ccc(Cl)c(Cl)c1)C1CCCc2ccccc21` (centres unmarked) [Compound 251], under “Table 3a”, the “Chemotaxis Assay 10 μM (inhibition %)” value is listed as 100%.

With `O=C(O)CCCN(CC(O)CNC(=O)Nc1ccc(Br)cc1)C1CCCc2ccccc21` (centres unmarked) [Compound 167, 4-[[3-(4-bromophenylureido)-2-hydroxypropyl](1,2,3,4-tetrahydro-1-naphthyl)amino]butanoic acid], testing at 10 µM (Table 3a) gave an inhibition of 100%.

Turning to `CCCCOC(=O)c1ccc(NC(=O)NCCCN(CCCC(=O)O)C2CCCc3ccccc32)cc1` (centres unmarked) [Compound 237], the “Chemotaxis Assay 10 μM (inhibition %)” value (Table 3a) was found to be 100%.

With `COC(=O)CCCN(CC[C@H](NC(=O)Nc1ccc(Br)cc1)C(=O)NCc1ccccc1)C1CCCc2ccccc21` (stereo partly drawn) [Compound 283, Methyl 4-[[(3S)-3-(4-bromophenylureido)-3-(benzylcarbamoyl)propyl](1,2,3,4-tetrahydro-1-naphthyl)amino]butylate], under “Table 3a”, the “Chemotaxis Assay 10 μM (inhibition %)” value is 100%.

For `O=C(NCCCN(CCc1ccccc1)CCc1ccc(Cl)cc1)Nc1ccccc1` [Compound 25], for the setting “Table 3a”, the “Chemotaxis Assay 10 μM (inhibition %)” value turned out to be 88%.

Under “Table 3a”, `CC(C)(C)OC(=O)[C@H](CCN(CCCC(=O)O)C1CCCc2ccccc21)NC(=O)Nc1ccc(Br)cc1` (stereo partly drawn) [Compound 165, 4[[(3S)-3-(4-bromophenylureido)-3-(tert-butoxycarbonyl)propyl](1,2,3,4-tetrahydro-1-naphthyl)amino]butanoic acid] came in with an inhibition at 10 µM of 100%.

As to `CN(CCCNC(=O)Nc1ccccc1)CCc1ccc(Cl)cc1` [Compound 27], the “Chemotaxis Assay 10 μM (inhibition %)” value (Table 3a) came out at 97%.

Consider `O=C(O)CCCN(CCCNC(=S)Nc1ccc(Br)cc1)C1CCCc2ccccc21` (centres unmarked) [Compound 246], for which the “Chemotaxis Assay 10 μM (inhibition %)” value (Table 3a) was found to be 100%.

For `O=C(NCCCN(CCc1ccc(Cl)cc1)Cc1cccnc1)Nc1ccccc1` [Compound 23], the “Chemotaxis Assay 10 μM (inhibition %)” value (Table 3a) was found to be 82%.

For `CC(c1ccccc1)N(CCCNC(=S)Nc1ccc(Br)cc1)CCCC(=O)O` (centres unmarked) [Compound 289], the “Chemotaxis Assay 10 μM (inhibition %)” value (Table 3a) amounted to 100%.

The record behind these values is patent US6875884B1, “Urea derivatives as inhibitors for CCR-3 receptor” (Kirin Beer Kabushiki Kaisha, priority 1999, dated 2005).
